Results from patent US20050256040A1, “Artificially designed pore-forming proteins with anti-tumor effects” (Buck Institute, priority 2004, published 2005).
Entries after “also recorded” stand apart in the source; their conditions may differ. Like-named read-outs stand apart in the source and are kept apart here.

What was measured:
[1] = tested on: KS1767 cells; assay: Matrigel / polymeric fibronectin assay of cell viability; format: cell-based, human; details: for effect on KS1767 cell layer: regardless of the presence of matrigel
Protocol: To determine the mechanisms responsible for selective anti-tumor activity of SGP in vivo, a matrigel assay (to mimic extracellular matrix) was developed. Cell viability was determined by morphology (see Ellerby, et al. (1999) supra.; and Ellerby, et al. (1997) supra.). KS1767 cells were incubated with SGP at 1 mM in the presence or absence of matrigel or polymeric fibronectin (sFN). The fibronectin polymer was produced as previously described (see Pasqualini, et al. (1996) Nature Med. 2, 1197-1203). Briefly, cell culture medium was aspirated from adherent cells. Cells were then coated with matrigel (gently pipetted on each well to completely coat the entire cell layer), or the fibronectin polymer, and incubated at 37° C. for 10 min. SGP was added and the cells were viewed on an inverted microscope (Nikon TE 300). KS1767 cells were also exposed to doxorubicin (20 μg/well) or SGP in the presence or absense of matrigel for 24 h. Cell viability (%) was evaluated after no treatment (medium or matrigel alone), incubation with SGP or doxorubicin. Cell death was evaluated morphologically (see Ellerby, et al. (1999) supra.; and Ellerby, et al. (1997) supra.), and cell viability was compared relative to untreated controls (no matrigel) or absence of SGP.

[2] = tested on: human MDA-MB-435-derived breast carcinoma xenografts; assay: Anti-tumor activity, MDA-MB-435 breast carcinoma xenografts in nude mice; format: in vivo, nude/nude Balb/c mice; details: for tumor appearance: 4 weekly treatments at 40 μl/week, starting volume 100 mm^3
Protocol: (§1) MDA-MB-435-, KS1767-, PC-3-, and H358-derived human tumor xenografts were established in 2-month-old female or male (according to the tumor type), nude/nude Balb/c mice (Jackson Labs, Bar Harbor, Me.) by administering […] per mouse in a 200 μl volume of serum-free Dulbecco's modified Eagle's medium into the mammary fat pad or on the flank (see Ellerby, et al. (1999) Nat. Med. 5, 1032-1038). The mice were anesthetized with Avertin as described (see Ellerby, et al. (1999) supra.). SGP was administered directly into the center of the tumor mass at a concentration of 100 μM or 1 mM given slowly in 5 μl increments, for a total volume of 40 μl. Measurements of tumors were taken by caliper under anesthesia and used to calculate tumor volume (see Ellerby, et al. (1999) supra.). Animal experimentation was reviewed and approved by the Institutional Animal Care and Use Committee.
In the first set of experiments, tumors were allowed to form after injection of a breast carcinoma cell line (MDA-MD-435) and then treated with local injections of SGP. […] Starting tumor volumes ranged from about 100 mm^3 to large sizes of about 600 mm^3. Tumor-bearing mice were given four weekly treatments of PBS, or 100 μM or 1 mM SGP (40 μl/treatment given in 5 μl increments). After a 4-week period without treatment, the tumor volumes were measured at 8 weeks. The average tumor volume at the end of the experiment in the SGP-treated groups was […] than the average volume seen in the PBS-treated group (FIG. 3A). There was no difference between the average tumor volumes of the 2 SGP treatment groups. Mice treated with SGP remained tumor-free for up to 4 months after tumor implantation, before being euthanized for histological evaluation. These observations indicate that both primary tumor growth (FIG. 4) and metastases were inhibited. […] By successfully treating a large number of mice and testing the effects of SGP on several different tumor xenograft models (including carcinomas, sarcomas, and melanomas), the therapeutic properties of SGP were firmly established. […] It was also evaluated whether SGP produced adverse side effects such as necrosis when injected under normal skin.
MDA-MB-435-derived breast carcinoma and KS1767-derived Kaposi sarcoma xenografts and organs were removed, fixed in Bouin solution, embedded in paraffin for preparation of tissue sections, and stained with hematoxylin and eosin (see Ellerby, et al. (1999) supra.).

[3] = cited from earlier work; for ability to disrupt synthetic membranes: Matsumoto et al. 2001
[4] = Cell viability LC50, CADMEC cells; format: cell-based, human; details: human
Protocol: (§2) To evaluate the effects of SGP on cell membranes multiple human cell lines of different origins were treated (see Table I, which presents a comparison of LC50 data for SGP, SGP-L, and SGP-E on a variety of cultured human cell types).
(§3) Cell viability was determined by morphology (see Ellerby, et al. (1999) Nat. Med. 5, 1032-1038; and Ellerby, et al. (1997) J. Neurosci. 17, 6165-6178). For viability assays, KS1767 cells were incubated with the concentrations of SGP, SGP-L, SGP-E, or control peptides indicated in the figures and in Table I. Briefly, at the given time points, cell culture medium was aspirated from adherent cells. Cells were then gently washed once with PBS at 37° C. A 20-fold dilution of the dye mixture (100 μg/ml acridine orange and 100 μg/ml ethidium bromide) in PBS was then gently pipetted on the cells and viewed on an inverted microscope (Nikon TE 300). […] Percent viability was calculated relative to untreated cells.

[5] = tested on: human PC3-derived prostate carcinoma xenografts; assay: Anti-tumor activity, PC-3 prostate carcinoma xenografts in nude mice; format: in vivo, nude/nude Balb/c mice; details: PC-3 tumors, 10 weeks
Source text: (§4) Data are shown for human PC3-derived prostate carcinoma and H358 lung carcinoma. Tumor cells were implanted on the flank at the start of the experiments. Mice were divided in similar groups based on matched tumor volumes at the start of the experiment (open circles).
as §1

[6] = tested on: KS1767 cells; format: cell-based; details: for CC50: KS 1767 cells, read-out: LC50 at 30 min; for toxicity to mammalian cultured cells compared with SGP: Table I cell types
Protocol: All cell lines were obtained commercially. The Kaposi's sarcoma-derived cell line KS1767 and the breast carcinoma cell line MDA-MB-435 have been described previously (see, for example, Herndier, et al. (1994) Aids 8, 575-581; Reisbach, et al. (1982) Anticancer Res. 2, 257-260; and Ellerby, et al. (1999) Nat. Med. 5, 1032-1038) and were cultured in 10% fetal bovine serum/Dulbecco's modified Eagle's medium, containing antibiotics.
as §2, §3

[7] = Cell viability LC50, 293 cells; format: cell-based; details: human, 293 cells (human kidney cells)
Protocol: as §2, §3

[8] = Cell viability LC50, HUVEC cells; format: cell-based; details: human, HUVEC (Human Umbilical Cord Vascular Endothelial Cells)
Protocol: as §2, §3

[9] = Cell viability LC50, HPAEC cells; format: cell-based; details: human, HPAEC (Human Pulmonary Artery Endothelial Cells)
Protocol: as §2, §3

[10] = Cell viability LC50, cell line not given in Table I; format: cell-based; details: for CC50: cell line cell empty (row under KS 1767), read-out: LC50 at 30 min
Protocol: as §2, §3

[11] = tested on: H358 lung carcinoma xenografts; assay: Anti-tumor activity, H358 lung carcinoma xenografts in nude mice; format: in vivo, nude/nude Balb/c mice
Source text: as §4, §1

[12] = tested on: normal skin; assay: Skin toxicity in nude mice; format: in vivo; details: 100 μM, injected sub-cutaneously or intradermally under normal skin
Protocol: 2-month-old female nude mice (Jackson Labs) were anesthetized with Avertin. 10 μl of 100 μM SGP or PBS was injected into the skin. The injected areas were monitored for 2 weeks.

[13] = tested on: CADMEC = Cell Applications Dermal Microvessel Endothelial Cells; assay: Cell viability LC50, CADMEC cells; format: cell-based, human; details: read-out: LC50 at 30 min
Protocol: as §2, §3

COc1cccc2c1C(=O)c1c(O)c3c(c(O)c1C2=O)C[C@@](O)(C(=O)CO)C[C@@H]3O[C@H]1C[C@H](N)[C@H](O)[C@H](C)O1 [doxorubicin, reference compound]
effect on KS1767 cell viability ([1]; 20 μg/well, 24 h, in the presence of matrigel): decreased cell viability
effect on KS1767 cell layer [1]: damaged the cell layer

CCO [ethanol, reference compound]
effect on KS1767 cells ([1]; in the presence of polymeric fibronectin (sFN)): induced massive cell death
effect on KS1767 cell layer [1]: damaged the cell layer

Ac-AAAAAAWAAAAGPNGLYLKKKLLKKLLKLLGNPGLKLYKKLLKKLLLKLGNPGLLKLYKKLLKKLLKLL-OH [SGP, small globular protein]
tumor appearance ([2]; 100 μM): flattened and virtually disappeared
histopathology of tumor xenografts ([2]; 100 μM, harvested at 8 weeks after treatment initiation): widespread cell death; also recorded: extensive apoptosis
tumor appearance ([2]; 1 mM): flattened and virtually disappeared
difference between average tumor volumes of 100 μM and 1 mM groups ([2]; 8 weeks): no difference
histological analysis of the major organs ([2]; SGP-treated mice): no overt pathology
time mice remained tumor-free after tumor implantation ([2]; before being euthanized for histological evaluation): up to 4 months
tumor volume compared with PBS-treated controls ([2]; four weekly intratumoral treatments, 100 μM or 1 mM, 40 μl, measured at 8 weeks): significantly smaller; also recorded: smaller than controls
primary tumor growth and metastases ([2]; mouse, in vivo): inhibited
surgical examination of the tumor sites ([2]; mouse, in vivo): no sign of tumor cells
pore size (conductance) in synthetic bilayers ([3]; Lee et al. 1997): 14 pS
CC50 at 30 min [4]: 5 µM
tumor volume compared with PBS-treated tumors [5]: smaller than control PBS-treated tumors
effect on KS1767 cells ([6]; 3 μM, 24 h): classic morphological signs of apoptosis
effect on KS1767 cells ([6]; 10 μM, within 60 s): extremely rapid non-necrotic, non-apoptotic cell death
effect on KS1767 cells ([6]; 10 μM, within 60 min): necrosis
effect on KS1767 cells ([6]; below 5 μM, over 24-hour period, confirmed by caspase-3 activation assay): induction of apoptosis
concentration affecting tumor derived cells as well as normal cells ([6]; cultured cells, tumor derived and normal): ~3 µM
CC50 at 30 min [7]: 5 µM
effect on KS1767 cells ([1]; 1 mM, in the presence of matrigel): remain unaffected
effect on KS1767 cell viability ([1]; 1 mM, in the presence of polymeric fibronectin (sFN)): ineffective; also recorded: remain unaffected
effect on KS1767 cells ([1]; 1 mM, without matrigel): decreases cell viability
SGP activity in the presence of fibronectin alone ([1]; fibronectin alone (not polymeric), control): did not prevent SGP activity
CC50 at 30 min [8]: 7 µM
CC50 at 30 min [9]: 5 µM
CC50 at 30 min ([10]; human): 4 µM
tumor volume compared with PBS-treated tumors ([11]; H358 tumors, 9 weeks): smaller than control PBS-treated tumors
tumor appearance ([11]; after 6 weekly treatments at 40 μl/week, FIG. 5C): have disappeared
skin toxicity [12]: relatively non-toxic to normal skin

DLSLARLATARLAI [negative control peptide, reference compound]
effect on KS1767 cells ([6]; 100 μM, 60 s): unaffected
effect on KS1767 cells ([6]; 100 μM, 24 h): unaffected
effect on KS1767 cells ([6]; 100 μM, after 60 min): unaffected

B1: SGP-L: SGP variant SEQ ID NO:4; central all alanine helix replaced by an all leucine helix; negative control (peptide)
chain: LLLLLLWLLLLGPNGLKLYKKLLKKLLKLLGNPGLKLYKKLLKKLLLKLGNPGLLKLYKKLLKKLLKLL
ability to disrupt synthetic membranes [3]: diminished
CC50 [13]: 60 µM
CC50 [6]: 60 µM
toxicity to mammalian cultured cells compared with SGP [6]: substantially less toxic
CC50 [10]: 60 µM

B2: SGP-E: SGP variant SEQ ID NO:3; lysines replaced by glutamic acids; negative control (peptide)
chain: AAAAAAWAAAAGNPGLELLKKLYKKLLELLGNPGLELLKKYLKKLLELLGNPGLLELLKKYLKKLLELL
ability to disrupt synthetic membranes [3]: diminished
CC50 [13]: 30 µM
CC50 [6]: 30 µM
toxicity to mammalian cultured cells compared with SGP [6]: substantially less toxic
CC50 [10]: 30 µM
